Reference: patent US8722730B2, “5-membered heterocyclic compound” (Research Foundation Itsuu Laboratory, priority 2007, dated 2014)
Like-named read-outs stand apart in the source and are kept apart here.

Experiments:
[1] = test system: human acute promyelocytic leukemia cell strain HL-60; assay: Differentiation induction of HL-60 cells, NBT-reducing ability; format: cell-based; conditions: 96 h, cultured four days, NBT reduction, read-out: ED50 (the source's name)
Experimental: Cells of human acute promyelocytic leukemia cell strain HL-60 were cultured in a CO2 incubator (5% CO2, 37° C.) using the RPMI medium containing 5% FBS. Differentiation inducing action of the compounds of the present invention on the HL-60 cells were evaluated on the basis of ability to reduce nitroblue tetrazolium (NBT) determined by observing differentiation from promyelocytic cells into granulocytic cells as an index. As positive control of retinoid compounds, retinoic acid and Am80 [4-[(5,6,7,8-tetrahydro-5,5,8,8-tetramethyl-2-naphthalenyl)carbamoyl]benzoic acid] were used. The cells that entered into the logarithmic phase and reached a substantially confluent state were centrifuged at 1000 rpm for 5 minutes, and the culture supernatant was removed. The cell pellet was suspended in fresh RPMI medium containing 5% FBS at a density of 8.0×10^4 cells/ml, then the suspension was added with a test compound dissolved in DMSO at an intended concentration, and the cells were cultured for four days and then used for the experiment. The samples were prepared so as to have the same DMSO concentration.
Cell count of the cells after the culture for a predetermined period was determined by a cell counting method using a blood cell counting chamber. The NBT-reducing ability was obtained as follows. NBT was dissolved in a phosphate buffered saline (PBS(−)) at a concentration of 0.2%, and the solution was added with an equivalent volume of the RPMI medium containing 5% FBS. The mixture was added with phorbol 12-myristate 13-acetate (tPA) at a concentration of 0.2 μM (about 200 ng) to prepare a reagent solution. The collected cells were centrifuged at 1000 rpm for 5 minutes, the supernatant was removed, and the remained cell pellet was added with the reagent solution. The mixture was incubated on a water bath at 37° C. for 20 minutes, and then NBT-reduced stained positive cells were counted by using the counting chamber to calculate a differentiation induction ratio.

[2] = cited from earlier work

SMILES	melting point [°C]	EC50 [1] [nM]	other results
CC(C)c1cc(C(=O)Nc2ccc(OCC(=O)O)cc2)oc1C(C)C [Compound 3, 4-[(4,5-Diisopropylfuran-2-carbonyl)amino]phenyloxyacetic acid]	83 to 85	–	–
CC(C)c1cc(C(=O)Nc2ccc(C(=O)O)c(O)c2)oc1C(C)C [Compound 24, 2-Hydroxy-4-[(4,5-diisopropylfuran-2-carbonyl)amino]benzoic acid]	179 to 180	–	–
CC(C)c1cc(C(=O)Nc2ccc(C(=O)O)cc2)[nH]c1C(C)C [Compound 12, 4-[(4,5-Diisopropylpyrrole-2-carbonyl)amino]benzoic acid]	230 to 230.5	40.4	–
CC(C)c1cc(C(=O)Nc2ccc(C(=O)O)s2)oc1C(C)C [Compound 9, 5-[(4,5-Diisopropylfuran-2-carbonyl)amino]thiophene-2-carboxylic acid]	227 to 228.5	72.9	–
CC(C)c1cc(/C=C/C(=O)N(C)c2ccc(C(=O)O)cc2)oc1C(C)C [Compound 27, 4-[[3-(4,5-Diisopropyl-2-furanyl)acryloyl]methylamino]benzoic acid]	213 to 214	–	–
CC(C)c1cc(/C=C/C(=O)Nc2ccc(C(=O)O)cc2)oc1C(C)C [Compound 10, 4-[[3-(4,5-Diisopropyl-2-furanyl)acryloyl]amino]benzoic acid]	131 to 133	166	–
CC(C)c1cc(C(=O)Nc2ccc(C(=O)O)c(Cl)c2)sc1C(C)C [Compound 40, 2-Chloro-4-[(4,5-diisopropylthiophene-2-carbonyl)amino]benzoic acid]	222 to 223	–	–
CC(C)c1cc(C(=O)Nc2cc(F)c(C(=O)O)c(F)c2)sc1C(C)C [Compound 43, 2,6-Difluoro-4-[(4,5-diisopropylthiophene-2-carbonyl)amino]benzoic acid]	218 to 219	–	–
CC(C)c1cc(C(=O)Nc2ccc(C(=O)O)cc2)sc1C(C)C [Compound 15, 4-[(4,5-Diisopropylthiophene-2-carbonyl)amino]benzoic acid]	219 to 221	1.8	–
CC1(C)CCC(C)(C)c2cc(NC(=O)c3ccc(C(=O)O)cc3)ccc21 [Am80, 4-[(5,6,7,8-tetrahydro-5,5,8,8-tetramethyl-2-naphthalenyl)carbamoyl]benzoic acid, reference compound]	–	1.6	–
CC(C)(C)c1ccc(C(=O)Nc2ccc(C(=O)O)cc2)o1 [4-[(5-t-butylfuran-2-carbonyl)amino]benzoic acid]	–	–	differentiation induction ratio ([2]; at 3.7 μM): 26%; differentiation induction ratio ([2]; at 19 μM): 42%; differentiation induction ratio ([2]; at 74 μM): 60%
CC(C)c1cc(C(=O)Nc2ccc(C(=O)O)cc2)oc1C(C)C [Compound 1, 4-[(4,5-Diisopropylfuran-2-carbonyl)amino]benzoic acid]	120 to 121	1.1	–
CC(C)c1[nH]c(C(=O)Nc2ccc(C(=O)O)cc2)c(C(C)C)c1C(C)C [Compound 14, 4-[(3,4,5-Triisopropylpyrrole-2-carbonyl)amino]benzoic acid]	> 300	> 1000	–
CC(C)c1cc(C(=O)Nc2ccc(C(=O)O)nc2)oc1C(C)C [Compound 7, 5-[(4,5-Diisopropylfuran-2-carbonyl)amino]pyridine-2-carboxylic acid]	106 to 107.5	13.1	–
CC(C)(C)c1ccc(C(=O)Nc2ccc(C(=O)O)cc2)s1 [4-[(5-t-butylthiophene-2-carbonyl)amino]benzoic acid]	–	–	differentiation induction ([2]; at 0.22 μM): no differentiation induction; differentiation induction ratio ([2]; at 1.1 μM): 22%; differentiation induction ratio ([2]; at 5.6 μM): 23%
CC(C)c1cc(C(=O)Nc2ccc(C(=O)O)cn2)sc1C(C)C [Compound 17, 6-[(4,5-Diisopropylthiophene-2-carbonyl)amino]pyridine-3-carboxylic acid]	> 300	–	–
CC(C)c1cc(C(=O)Nc2ccc(C(=O)O)c(Cl)c2)oc1C(C)C [Compound 23, 2-Chloro-4-[(4,5-diisopropylfuran-2-carbonyl)amino]benzoic acid]	152 to 153	–	–

Further lines, with some results ahead:

melting point [°C]	EC50 [1] [nM]	SMILES	other results
225 to 226	–	CC(C)c1cc(C(C)C)c(C(=O)Nc2ccc(C(=O)O)cc2)[nH]1 [Compound 13, 4-[(3,5-Diisopropylpyrrole-2-carbonyl)amino]benzoic acid]	–
169 to 171	–	CC(C)c1cc(C(=O)Nc2ccc(C(=O)O)o2)oc1C(C)C [Compound 35, 5-[(4,5-Diisopropylfuran-2-carbonyl)amino]-2-furancarboxylic acid]	–
133 to 135	–	CC(C)c1cc(C(=O)Nc2ccc(C(=O)O)c(F)c2)sc1C(C)C [Compound 39, 2-Fluoro-4-[(4,5-diisopropylthiophene-2-carbonyl)amino]benzoic acid]	–
240 to 243	–	CC(C)c1cc(C(=O)Nc2ccc3[nH]c(C(=O)O)cc3c2)oc1C(C)C [Compound 36, 5-[(4,5-Diisopropylfuran-2-carbonyl)amino]-2-indolecarboxylic acid]	–
139 to 141	> 1000	CC(C)c1cc(C(=O)Nc2ccc(CCC(=O)O)cc2)oc1C(C)C [Compound 6, 3-[4-[(4,5-Diisopropylfuran-2-carbonyl)amino]phenyl]propionic acid]	–
136 to 137	–	COc1cc(NC(=O)c2cc(C(C)C)c(C(C)C)o2)ccc1C(=O)O [Compound 25, 2-Methoxy-4-[(4,5-diisopropylfuran-2-carbonyl)amino]benzoic acid]	–
154 to 156	–	CC(C)c1cc(C(=O)Nc2ccc(CC(=O)O)cc2)oc1C(C)C [Compound 4, 4-[(4,5-Diisopropylfuran-2-carbonyl)amino]phenylacetic acid]	–
232.5 to 235	74.7	C/C(=C\C(=O)Nc1ccc(C(=O)O)cc1)c1cc(C(C)C)c(C(C)C)o1 [Compound 11, 4-[[3-(4,5-Diisopropyl-2-furanyl)crotonoyl]amino]benzoic acid]	–
216 to 217	–	CC(C)c1cc(C(=O)Nc2ccc(C(=O)O)nc2)sc1C(C)C [Compound 16, 5-[(4,5-Diisopropylthiophene-2-carbonyl)amino]pyridine-2-carboxylic acid]	–
151 to 152	–	CC(C)c1cc(C(=O)Nc2ccc(C(=O)O)c(F)c2)oc1C(C)C [Compound 22, 2-Fluoro-4-[(4,5-diisopropylfuran-2-carbonyl)amino]benzoic acid]	–
187.5 to 189	–	CC(C)c1cc(/C=C/C(=O)N(C)c2cccc(C(=O)O)c2)oc1C(C)C [Compound 29, 3-[[3-(4,5-Diisopropyl-2-furanyl)acryloyl]methylamino]benzoic acid]	–
213 to 214	–	COc1cc(NC(=O)c2cc(C(C)C)c(C(C)C)s2)ccc1C(=O)O [Compound 42, 2-Methoxy-4-[(4,5-diisopropylthiophene-2-carbonyl)amino]benzoic acid]	–
220.5 to 221.5	–	CC(C)c1cc(/C=C/C(=O)Nc2cccc(C(=O)O)c2)oc1C(C)C [Compound 28, 3-[[3-(4,5-Diisopropyl-2-furanyl)acryloyl]amino]benzoic acid]	–
243.5 to 245	–	CC(C)c1cc(C(=O)Nc2cccc(C(=O)O)c2)oc1C(C)C [Compound 5, 3-[(4,5-Diisopropylfuran-2-carbonyl)amino]benzoic acid]	–
129 to 130	–	CC(C)c1cc(C(=O)Nc2ccc(C(=O)O)c(O)c2)sc1C(C)C [Compound 41, 2-Hydroxy-4-[(4,5-diisopropylthiophene-2-carbonyl)amino]benzoic acid]	–
278 to 279	1.9	CC(C)c1cc(C(=O)Nc2ccc(C(=O)O)cn2)oc1C(C)C [Compound 8, 6-[(4,5-Diisopropylfuran-2-carbonyl)amino]pyridine-3-carboxylic acid]	–
